# Counter-ions that a name gives are not always drawn.
# Target: T1, human A3AR (Homo sapiens, UniProt P0DMS8)
# T1 construct: expressed in transfected cells
# T1 sequence (P0DMS8 1-318): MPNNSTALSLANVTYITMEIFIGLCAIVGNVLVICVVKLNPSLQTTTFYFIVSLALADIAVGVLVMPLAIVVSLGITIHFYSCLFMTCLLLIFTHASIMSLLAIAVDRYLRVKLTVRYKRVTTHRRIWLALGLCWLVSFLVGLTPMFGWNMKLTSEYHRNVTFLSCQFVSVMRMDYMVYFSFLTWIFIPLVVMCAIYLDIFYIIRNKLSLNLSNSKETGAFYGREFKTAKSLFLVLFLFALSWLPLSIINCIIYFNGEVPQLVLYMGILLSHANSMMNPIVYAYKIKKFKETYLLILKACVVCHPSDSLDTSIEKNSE
# Experiment: LOPAC library primary screen: single concentration (10 μM) inhibition of 25 nM CA200645 binding, PHERAstar FS
# Conditions: not given
row,Compound,% 25 nM CA200645 binding [%]
1,COc1cccc(OC)c1OCCNCC1CSc2ccccc2O1 (centres unmarked) [Benoxathian hydrochloride],95.8 ± 4.4
2,C[C@H](Cc1ccccc1)Nc1ncnc2c1ncn2[C@@H]1O[C@H](CO)[C@@H](O)[C@H]1O [R(-)-N6-(2-Phenylisopropyl)adenosine],69.2 ± 26.4
3,Cl.NCCC[C@](N)(C(=O)O)C(F)F (racemic),103.2 ± 12.1
4,CS(=O)(=O)O.Cn1cc(C(F)(F)F)nc1-c1ccc(OCC(O)CNCCOc2ccc(O)c(C(N)=O)c2)cc1 (centres unmarked) [CGP 20712A methanesulfonate],106.4 ± 13.7
5,"O.O=c1cc(-c2ccccc2)oc2c(O)c(O)ccc12 [7,8-Dihydroxyflavone hydrate]",68.2 ± 13.0
6,CN1CCc2cccc3c2[C@H]1Cc1ccc(O)c(O)c1-3 [Apomorphine hydrochloride hemihydrate],95.0 ± 6.4
7,Br.CCCN(CCC)[C@@H]1CCc2cccc(O)c2C1 [R-(+)-8-Hydroxy-DPAT hydrobromide],83.0 ± 17.5
8,CC/C(=C(\c1ccccc1)c1ccc(OCCN(C)C)cc1)c1ccccc1 [Tamoxifen],83.1 ± 23.3
9,NC(=O)c1cc[n+](CC2=C(C(=O)[O-])N3C(=O)[C@@H](NC(=O)C(c4ccccc4)S(=O)(=O)[O-])[C@H]3SC2)cc1.O.[Na+] (some centres unmarked) [Cefsulodin sodium salt hydrate],100.8 ± 6.6
10,Cc1cc2c(cc1Cl)N(C(=O)Nc1ccc(Oc3cccnc3C)nc1)CC2.Cl.Cl.O [SB 242084 dihydrochloride hydrate],49.6± 12.4
11,COc1cc(/C=C(\C#N)C(=O)Nc2nnc(C(F)(F)F)s2)ccc1OCc1ccc(C(F)(F)F)cc1C(F)(F)F [XCT790],87.7 ± 9.0
12,C[C@@H]1O[C@@H](O[C@H]2C[C@@H](O)[C@]3(CO)[C@H]4[C@H](O)C[C@]5(C)[C@@H]([C@@H]6COC(=O)C6)CC[C@]5(O)[C@@H]4CC[C@]3(O)C2)[C@H](O)[C@H](O)[C@H]1O [Dihydroouabain],102.4 ± 11.9
13,"O=c1nc2[nH]c3ccccc3nc-2c(=O)[nH]1 [alloxazine, reference compound]",89.0 ± 4.9
14,C#CC(N)CCC(=O)O (centres unmarked) [gamma-Acetylinic GABA],97.6 ± 3.0
15,C[C@@H]1O[C@@H]1P(=O)(O)O [Phosphomycin disodium],98.9 ± 12.7
16,CC(=O)OCC1=C(C(=O)O)N2C(=O)[C@@H](NC(=O)Cc3cccs3)[C@H]2SC1 [Cephalothin sodium],104.6 ± 12.0
17,CC[C@H](NC(=O)c1c(C)c(-c2ccccc2)nc2ccccc12)c1ccccc1 [SB 222200],76.8 ± 5.5
18,NC(=O)NO [Hydroxyurea],107.6 ± 23.3
19,CC(C)(C)[C@]1(O)CCN2C[C@H]3c4ccccc4CCc4cccc(c43)[C@@H]2C1 [(+)-Butaclamol hydrochloride],98.6 ± 1.9
20,O=C(O)CCCCC1CCSS1 (racemic) [(±)-alpha-Lipoic Acid],99.7 ± 5.6
21,C[N+](C)(C)CCCCCC[N+](C)(C)C [Hexamethonium bromide],99.4 ± 1.1

row,Compound,% 25 nM CA200645 binding [%]
1,O=C(OCCN1CCOCC1)C1(c2ccccc2)CCCCC1 [PRE-084],100.3 ± 14.3
2,CCn1cc(C(=O)O)c(=O)c2cc(F)c(N3CCNC(C)C3)c(F)c21 (centres unmarked) [Lomefloxacin hydrochloride],96.9 ± 10.1
3,Brc1c(Br)c(Br)c2[nH]cnc2c1Br [TBBz],74.5 ± 15.0
4,CCCCCCCCc1ccc(-c2ccc(C(=O)O)cc2)cc1 [AC-55649],83.6 ± 13.2
5,CCCCCCCCCCCCCCCCCCN(CCCCCCCCCCCCCCCCCC)CCCN(CCO)CCO [Avridine],100.2 ± 21.9
6,Cc1ccc(O)c(N=Nc2ccccc2)n1 [SIB 1757],98.5 ± 4.5
7,"MDL 26,630 trihydrochloride",124.5 ± 16.5
8,Cl.O=c1[nH]oc2c1CCNC2 [THIP hydrochloride],100.3 ± 3.4
9,Nc1nc2c(ncn2CCOCP(=O)(O)O)c(=O)[nH]1 [PMEG hydrate],97.6 ± 14.8
10,COc1cc2c(CCNC(C)=O)c[nH]c2cc1Cl [6-Chloromelatonin],92.8 ± 24.3
11,OC[C@H]1NC[C@H](O)[C@@H](O)[C@@H]1O [1-Deoxynojirimycin hydrochloride],98.5 ± 11.6
12,O=C1Cc2cc(CCN3CCN(c4nsc5ccccc45)CC3)c(Cl)cc2N1 [Ziprasidone hydrochloride monohydrate],84.7 ± 3.4
13,O=c1[nH]c2ccccc2n1C1CCN(CCCC(c2ccc(F)cc2)c2ccc(F)cc2)CC1 [Pimozide],78.2 ± 10.9
14,CCCCc1ccc(C(=O)O)nc1 [Fusaric acid],66.5 ± 29.0
15,C[N+](C)(C)CCOC(=O)CBr.[Br-] [Bromoacetylcholine bromide],95.1 ± 8.8
16,"Cl.c1ccc(CN2CCC3(CCCc4ccccc43)CC2)cc1 [L-687,384 hydrochloride]",108.6 ± 4.6
17,CCOC(=O)Nc1ccc(NCc2ccc(F)cc2)nc1N [Flupirtine maleate],75.3 ± 9.1
18,"CC(=O)C(C)=NO [2,3-Butanedione monoxime]",109.9 ± 13.3
19,CC(C)[C@@H]1CC[C@@H](C)C[C@@H]1P(=O)(c1ccccc1)c1ccccc1 [DPO-1],89.1 ± 3.8
20,CCN(CC)C(=O)c1ccc(O)c(OC)c1 [Vanillic acid diethylamide],101.7 ± 2.4
21,CCN(CC)CCNC(=O)c1ccc(N)cc1 [Procainamide hydrochloride],89.6 ± 33.7

row,Compound,% 25 nM CA200645 binding [%]
1,NS(=O)(=O)c1cc2c(cc1Cl)N=CNS2(=O)=O [Chlorothiazide],107.7 ± 8.4
2,Cc1ccc(S(=O)(=O)N[C@@H](Cc2ccccc2)C(=O)CCl)cc1,102.0 ± 13.7
3,CCN(CC)CCNC(=O)c1ccc(NC(C)=O)cc1.Cl [N-Acetylprocainamide hydrochloride],86.4 ± 17.7
4,O=C(O)C(O)C(O)C(=O)O.c1cnc2cc3c(cc2n1)[C@@H]1CNC[C@H]3C1 [Varenicline tartrate],90.5 ± 2.6
5,Br.CN1CCc2cc(O)cc3c2[C@H]1Cc1ccc(O)c(O)c1-3,83.0 ± 14.1
6,Nc1c2c(nc3ccccc13)CCCC2O.O=C(O)/C=C\C(=O)O (centres unmarked) [Hydroxytacrine maleate],108.6 ± 13.0
7,NCC1(CC(=O)O)CCCCC1 [Gabapentin],80.7 ± 22.8
8,C[C@@H](N)Cc1cnc[nH]1.Cl.Cl,98.7 ± 8.4
9,Nc1nc(N)c2nc(CNc3ccc(C(=O)N[C@@H](CCC(=O)O)C(=O)O)cc3)cnc2n1 [Aminopterin],91.1 ± 3.5
10,CSC(=N)N.CSC(=N)N.O=S(=O)(O)O [S-Methylisothiourea hemisulfate],112.2 ± 21.2
11,CC(=O)O[C@H]1C[C@@]2(C)[C@@H](C[C@@H](O)[C@H]3[C@@]4(C)CC[C@@H](O)[C@@H](C)[C@@H]4CC[C@@]32C)/C1=C(\CCC=C(C)C)C(=O)[O-].[Na+] [Fusidic acid sodium],93.0 ± 9.1
12,Nc1nc(Cl)nc2c1ncn2[C@@H]1O[C@H](CO)[C@@H](O)[C@H]1O [2-Chloroadenosine],51.0 ± 6.7
13,C[C@@H](N)[C@H]1CC[C@H](C(=O)Nc2ccncc2)CC1.Cl.Cl [Y-27632 dihydrochloride],98.6 ± 10.3
14,CC(C)(C)NCC(O)COc1cccc2[nH]c(=O)[nH]c12.Cl (racemic) [(±)-CGP-12177A hydrochloride],114.1 ± 10.3
15,C[N+](C)(C)CCCCCC[N+](C)(C)C.[Cl-].[Cl-] [Hexamethonium dichloride],100.8 ± 9.2
16,CN[C@H](CC(=O)O)C(=O)O [N-Methyl-D-aspartic acid],109.5 ± 4.3
17,Cc1scc2c1N(C(=O)CN1CCN(C)CC1)c1ccccc1NC2=O [Telenzepine dihydrochloride],107.0 ± 15.2
18,COc1ccc(CCn2nnnc2C2(c3ccc(C)cc3)CC2)cc1 [Mephetyl tetrazole],66.4 ± 18.5
19,N[C@H](CO)C(=O)O [D-Serine],100.2 ± 11.0

# Same assay, conditions: 10 μM compound, 25 nM CA200645, A3AR CHO cells
row,Compound,hit in LOPAC primary screen (inhibited the binding of CA200645 by >40%)
1,"O=c1nc2[nH]c3ccccc3nc-2c(=O)[nH]1 [alloxazine, reference compound]",not identified as hits

# Same assay, conditions: % of control wells (1% DMSO and 25 nM CA200645); compounds at 10 µM; […]; mean ± SD, three experiments in duplicate
row,Compound,% 25 nM CA200645 binding [%]
1,CN1CCN(C2Cc3ccccc3Sc3ccc(Cl)cc32)CC1.O=C(O)/C=C\C(=O)O (racemic) [(±)-Octoclothepin maleate],83.2 ± 25.2

# Same assay, conditions: % of control wells (1% DMSO and 25 nM CA200645); compounds at 10 µM; whole live cells expressing the A3AR; mean ± SD, three experiments in duplicate
row,Compound,% 25 nM CA200645 binding [%]
1,O=C(O)CNC(=O)C(CS)Cc1ccccc1 (racemic) [DL-Thiorphan],100.0 ± 12.5
2,O=C(O)C1=CCNCC1 [Isoguvacine hydrochloride],87.4 ± 16.5
3,COc1cc2c(cc1OC)-c1c/c(=N\c3c(C)cc(C)cc3C)n(C)c(=O)n1CC2 [Trequinsin hydrochloride],88.3 ± 40.0

# Same assay, conditions: compounds tested at 10 µM; % of control wells (1% DMSO and 25 nM CA200645); whole live cells expressing the A3AR; mean ± SD, three experiments in duplicate
row,Compound,% 25 nM CA200645 binding [%]
1,NC(=O)c1cc(N2CC2)c([N+](=O)[O-])cc1[N+](=O)[O-] [CB 1954],93.7 ± 2.8
2,O=C1NC(=O)[C@@]2(CCOc3ccc(F)cc32)N1 [Sorbinil],96.4 ± 14.0
